Laboratory results from patent US7879844B2, “Heterocyclic janus kinase 3 inhibitors” (Astellas Pharma Inc., priority 2005, dated 2011).

Molecular target: T1, human JAK3 kinase domain (Homo sapiens, UniProt P52333)
T1 construct: attached to the N-terminal of the 796-1124 (C-terminal) fragment of the human JAK3 protein; His-tag (N); purchased Carna Biosciences, Inc. (Kobe, Japan); host or cells: baculovirus expression system
Assay: JAK3 inhibition test
Format: biochemical
Details: purified human JAK3 kinase domain; Biotin-Lyn-Substrate-2, 20 μM ATP in substrate solution; absorbance at 450 nm; read-out: IC50 (JAK3 inhibitory activity)
Method: The JAK3 inhibition test was performed as described below according to the method of Okimoto et al.
Purified human JAK3 kinase domain was purchased from Carna Biosciences, Inc. (Kobe, Japan). This is obtained as described below. His-tag (41 kDa) was attached to the N-terminal of the 796-1124 (C-terminal) fragment of the human JAK3 protein (accession number #NM_000215), expressed using baculovirus expression system, and then purified using Ni-NTA affinity column chromatography.
After incubation at ambient temperature for one hour, the plate was washed with a cleaning buffer (50 mM Tris-HCl pH 7.5, 150 mM NaCl, 0.02% Tween 20), and a blocking buffer (a cleaning buffer containing 0.1% bovine serum albumin) was added to the plate. After incubation at ambient temperature for 30 minutes, the blocking buffer was removed, and an HRP-PY-20 solution (obtained by diluting HRP-PY-20 solution with the blocking buffer 500 times) was added. After incubation at ambient temperature for 30 minutes, the plate was washed four times, and a TMB substrate solution (Sigma) was added to the plate. After incubation at ambient temperature for four minutes, 1M sulfuric acid was added to stop the reaction. Enzyme activity was measured as absorbance at 450 nm. The efficacy of the test compound as a JAK3 inhibitor was expressed as an IC50 value.

T1 sequence (P52333 796-1124): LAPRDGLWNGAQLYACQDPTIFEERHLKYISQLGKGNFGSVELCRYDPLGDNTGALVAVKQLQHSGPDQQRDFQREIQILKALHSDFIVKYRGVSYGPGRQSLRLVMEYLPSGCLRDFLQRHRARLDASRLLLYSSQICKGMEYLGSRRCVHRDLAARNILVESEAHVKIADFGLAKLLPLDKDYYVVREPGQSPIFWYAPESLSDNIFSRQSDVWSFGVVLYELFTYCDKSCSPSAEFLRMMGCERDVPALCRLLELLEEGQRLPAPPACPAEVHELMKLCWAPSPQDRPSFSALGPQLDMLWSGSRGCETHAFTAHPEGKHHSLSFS

IC50 [nM]	SMILES
0.17	Nc1nnc(-c2cnc3[nH]ccc3c2N[C@H]2C3CC4CC2C[C@@](O)(C4)C3)s1 [Example 34, (1s,4r)-4-{[5-(5-amino-1,3,4-thiadiazole-2-yl)-1H-pyrrolo[2,3-b]pyridine-4-yl]amino}adamantan-1-ol]
1.2	O=C(CO)c1cnc2[nH]ccc2c1N[C@H]1C2CC3CC1C[C@@](O)(C3)C2 [Example 379]
0.28	CN(CC#N)C(=O)C12CC3CC(C1)C(n1c(=O)[nH]c4cnc5[nH]ccc5c41)C(C3)C2 (centres unmarked) [Example 384]
2.1	CNC(=O)C(=O)Nc1nn([C@H]2[C@@H]3CC4C[C@H]2C[C@@](O)(C4)C3)c2c1cnc1[nH]ccc12 [Example 33, cis-N-{1-[(1R,2R,3S,5s)-5-hydroxyadamantan-2-yl]-1,6-dihydropyrazolo[3,4-d]pyrrolo[2,3-b]pyridine-3-yl}-N′-methylethanediamide]
0.65	N#CCCOC12CC3CC(C1)C(n1c(=O)[nH]c4cnc5[nH]ccc5c41)C(C3)C2 (centres unmarked) [Example 405]
2.3	N#CC12CC3CC(C1)C(Nc1c(C(N)=O)cnc4[nH]cnc14)C(C3)C2 (centres unmarked) [Example 426]
0.33	N#Cc1ccc(N2[C@@H]3CC[C@H]2C[C@H](Nc2c(C(N)=O)cnc4[nH]ccc24)C3)nn1 [Example 543]
1.3	N#CCCOC12CC3CC(C1)C(n1[nH]c(=O)c4cnc5[nH]ccc5c41)C(C3)C2 (centres unmarked) [Example 498]
0.31	OCc1noc(-c2cnc3[nH]ccc3c2N[C@H]2C3CC4CC2C[C@@](O)(C4)C3)n1 [Example 484]
0.86	CO[C@H]1CC[C@H](NC(=O)C(=O)Nc2nn([C@H]3[C@@H]4CC5C[C@H]3C[C@@](O)(C5)C4)c3c2cnc2[nH]ccc23)CC1 [Example 434]
2.3	O[C@]12CC3C[C@H](C1)[C@H](Nc1c(-c4nnco4)cnc4[nH]ccc14)[C@@H](C3)C2 (relative stereo) [Example 29, rel-(1s,3R,4R,5S)-4-{[5-(1,3,4-oxazole-2-yl)-1H-pyrrolo[2,3-b]pyridine-4-yl]amino}adamantan-1-ol]
0.69	N#Cc1ccc(N2[C@@H]3CC[C@H]2C[C@H](Nc2c(C(N)=O)cnc4[nH]ccc24)C3)nc1 [Example 143]
1.9	COCCNC(=O)C(=O)Nc1nn([C@H]2C3CC4CC2C[C@@](O)(C4)C3)c2c1cnc1[nH]ccc12 [Example 32, cis-N-{1-[(1R,2R,3S,5s)-5-hydroxyadamantan-2-yl]-1,6-dihydropyrazolo[3,4-d]pyrrolo[2,3-b]pyridine-3-yl}-N′-(2-methoxyethyl)ethanediamide]
4.4	NC(=O)c1cnc2[nH]ccc2c1N[C@@H]1C[C@H]2CC[C@@H]1C2 [Example 133]
